The first assay concerns the target CDK2 (UniProt P24941). Put plainly: Enzyme Assay.
Details: not given
The compound `N#CCc1ccc(CNC(=O)c2ccc(Nc3nc(N)c(C(=O)c4c(F)cccc4F)s3)cc2)cc1` came in with an inhibitory constant (Ki) of 25 nM.

Still in this assay, the particulars now being: concentration not given here.
As to `CCCN(C(=O)c1ccc(Nc2nc(N)c(C(=O)c3c(F)cccc3F)s2)cc1)C(C)CC` (stereo unspecified), the inhibition was -16%.

As to `N#CCCN(Cc1ccccc1)C(=O)c1ccc(Nc2nc(N)c(C(=O)c3c(F)cccc3F)s2)cc1`, the inhibition turned out to be 0%. The same measure, in the same setting: next, `Nc1nc(Nc2ccc(C(=O)NCCc3cccc(F)c3)cc2)sc1C(=O)c1c(F)cccc1F`: -6%; `C#CCc1ccc(NC(=O)c2ccc(Nc3nc(N)c(C(=O)c4c(F)cccc4F)s3)cc2)cc1`: 1%. The same measure, in the same setting: next, `CC1CC(C)CN(C(=O)c2ccc(Nc3nc(N)c(C(=O)c4c(F)cccc4F)s3)cc2)C1` (stereo unspecified): -33%.

Consider `CN(C(=O)c1ccc(Nc2nc(N)c(C(=O)c3c(F)cccc3F)s2)cc1)C1CCCCC1`, for which the inhibition is -2%. On the same count and under the same terms, next, `CCCCN(CCC#N)C(=O)c1ccc(Nc2nc(N)c(C(=O)c3c(F)cccc3F)s2)cc1`: 4%. On the same count and under the same terms, the value for `N#CCCN(CC1CCCO1)C(=O)c1ccc(Nc2nc(N)c(C(=O)c3c(F)cccc3F)s2)cc1` (stereo unspecified) was -5%. Still for that read-out and setting: the value for `NC(=O)c1cccc(NC(=O)c2ccc(Nc3nc(N)c(C(=O)c4c(F)cccc4F)s3)cc2)c1` was -1%; that for `COCCCNC(=O)c1ccc(Nc2nc(N)c(C(=O)c3c(F)cccc3F)s2)cc1` was -24%. As for `COC(=O)c1ccccc1NC(=O)c1ccc(Nc2nc(N)c(C(=O)c3c(F)cccc3F)s2)cc1`, the inhibition was -4%. The same measure, in the same setting: next, `CC(CCc1ccccc1)NC(=O)c1ccc(Nc2nc(N)c(C(=O)c3c(F)cccc3F)s2)cc1` (stereo unspecified): -6%; `CC(C)c1cccc(NC(=O)c2ccc(Nc3nc(N)c(C(=O)c4c(F)cccc4F)s3)cc2)c1`: -12%; `C#CCN(C)C(=O)c1ccc(Nc2nc(N)c(C(=O)c3c(F)cccc3F)s2)cc1`: -14%. On to `Nc1nc(Nc2ccc(C(=O)NCCc3ccccc3)cc2)sc1C(=O)c1c(F)cccc1F`, for which the inhibition was -19%. Still for that read-out and setting: the value for `CC[C@H](C)[C@@H](CO)NC(=O)c1ccc(Nc2nc(N)c(C(=O)c3c(F)cccc3F)s2)cc1` was -7%. On the same count and under the same terms, next, `COC(CN(C)C(=O)c1ccc(Nc2nc(N)c(C(=O)c3c(F)cccc3F)s2)cc1)OC`: -7%; `CC1CC(NC(=O)c2ccc(Nc3nc(N)c(C(=O)c4c(F)cccc4F)s3)cc2)CC(C)(C)C1` (stereo unspecified): -11%.

With `COc1ccc(CCN(C)C(=O)c2ccc(Nc3nc(N)c(C(=O)c4c(F)cccc4F)s3)cc2)cc1OC`, the inhibition is -3%.

Regarding `COCCN(CCOC)C(=O)c1ccc(Nc2nc(N)c(C(=O)c3c(F)cccc3F)s2)cc1`, the inhibition was -4%. As for `CCCN(CCc1ccccn1)C(=O)c1ccc(Nc2nc(N)c(C(=O)c3c(F)cccc3F)s2)cc1`, the inhibition is -12%.

In the case of `Nc1nc(Nc2ccc(C(=O)NC3CC3)cc2)sc1C(=O)c1c(F)cccc1F`, the inhibition is -5%.

For `CCOC(=O)c1ccc(NC(=O)c2ccc(Nc3nc(N)c(C(=O)c4c(F)cccc4F)s3)cc2)cc1`, the inhibition came out at 1%. Take `CSCC[C@@H](CO)NC(=O)c1ccc(Nc2nc(N)c(C(=O)c3c(F)cccc3F)s2)cc1`: the inhibition was -5%. Turning to `CC(C)C(C)NC(=O)c1ccc(Nc2nc(N)c(C(=O)c3c(F)cccc3F)s2)cc1` (stereo unspecified), the inhibition is -20%. The same measure, in the same setting: next, `CN(Cc1ccncc1)C(=O)c1ccc(Nc2nc(N)c(C(=O)c3c(F)cccc3F)s2)cc1`: 1%; `Nc1nc(Nc2ccc(C(=O)N[C@H](CO)Cc3ccccc3)cc2)sc1C(=O)c1c(F)cccc1F`: -14%.

With `Nc1nc(Nc2ccc(C(=O)N[C@H](CO)CC3CCCCC3)cc2)sc1C(=O)c1c(F)cccc1F`, the inhibition is -7%.

Take `Nc1nc(Nc2ccc(C(=O)Nc3ccc(Nc4ccccc4)cc3)cc2)sc1C(=O)c1c(F)cccc1F`: the inhibition was -6%.

Consider `Nc1nc(Nc2ccc(C(=O)NCCC3OCCO3)cc2)sc1C(=O)c1c(F)cccc1F`, for which the inhibition is -10%. Take `C=CCN(C)C(=O)c1ccc(Nc2nc(N)c(C(=O)c3c(F)cccc3F)s2)cc1`: the inhibition was -6%. Still for that read-out and setting: next, `COc1ccc(OC)c(CCNC(=O)c2ccc(Nc3nc(N)c(C(=O)c4c(F)cccc4F)s3)cc2)c1`: -5%; `CN(Cc1ccco1)C(=O)c1ccc(Nc2nc(N)c(C(=O)c3c(F)cccc3F)s2)cc1`: -3%; `CC(C)C(CO)NC(=O)c1ccc(Nc2nc(N)c(C(=O)c3c(F)cccc3F)s2)cc1` (stereo unspecified): -3%. On the same count and under the same terms, the value for `CC(CNC(=O)c1ccc(Nc2nc(N)c(C(=O)c3c(F)cccc3F)s2)cc1)N(C)C` (stereo unspecified) was -7%.

With `CC(=O)Nc1ccccc1C(=O)c1sc(Nc2ccc(C(=O)NC[C@@H]3CCCN3C)cc2)nc1N`, the inhibition was 0%. On the same count and under the same terms, the value for `Cc1ccc(O)c(NC(=O)c2ccc(Nc3nc(N)c(C(=O)c4c(F)cccc4F)s3)cc2)c1` was -6%; that for `Nc1nc(Nc2ccc(C(=O)N3CCN(CCCO)CC3)cc2)sc1C(=O)c1c(F)cccc1F` was -14%; that for `Nc1nc(Nc2ccc(C(=O)N3CCN(c4ccncc4)CC3)cc2)sc1C(=O)c1c(F)cccc1F` was -1%.

As for `Cc1cccc(NC(=O)c2ccc(Nc3nc(N)c(C(=O)c4c(F)cccc4F)s3)cc2)c1`, the inhibition is -7%. `CC(C)NC(=O)c1ccc(Nc2nc(N)c(C(=O)c3c(F)cccc3F)s2)cc1`: the inhibition was -10%. Same read-out and setting: next, `Nc1nc(Nc2ccc(C(=O)N3CCSC3)cc2)sc1C(=O)c1c(F)cccc1F`: -3%; `CN(CCc1ccccc1)C(=O)c1ccc(Nc2nc(N)c(C(=O)c3c(F)cccc3F)s2)cc1`: -12%. Regarding `N#CCCSc1ccccc1NC(=O)c1ccc(Nc2nc(N)c(C(=O)c3c(F)cccc3F)s2)cc1`, the inhibition was -14%. Still for that read-out and setting: next, `CC(=O)N[C@@H]1CCN(C(=O)c2ccc(Nc3nc(N)c(C(=O)c4c(F)cccc4F)s3)cc2)C1`: -7%. On the same count and under the same terms, next, `Nc1nc(Nc2ccc(C(=O)N(CCCCO)Cc3ccccc3)cc2)sc1C(=O)c1c(F)cccc1F`: 0%; `Nc1nc(Nc2ccc(C(=O)Nc3ccon3)cc2)sc1C(=O)c1c(F)cccc1F`: -1%; `C=CCN(C(=O)c1ccc(Nc2nc(N)c(C(=O)c3c(F)cccc3F)s2)cc1)C1CCCCC1`: -15%. Take `Nc1nc(Nc2ccc(CCO)cc2)sc1C(=O)c1c(F)cccc1F`: the inhibition is 19%.

On to `Nc1nc(Nc2ccc(C(=O)N3CCOCC3)cc2)sc1C(=O)c1c(F)cccc1F`, for which the inhibition was -4%.

As a reminder, the Ki is a measure of affinity in units of concentration, obtained from inhibition or displacement. Low readings indicate a stronger hold on the target, high ones a looser hold on the target. As usually defined, the inhibition is the relative decrease from the control value, in per cent.

The values above are taken from the Kinase Knowledgebase extract (Sharma et al. 2016).
